How the values were obtained:
rainbow trout = assay: In vivo bioconcentration test OECD TG 305, trout; set-up: species or system Oncorhynchus mykiss; settings: rainbow trout (Oncorhynchus mykiss), in vivo
Protocol: (§1) In vivo BCF values for MXC and BaP in carp and trout were determined in bioconcentration tests with both species in accordance to OECD TG 305 ([OECD, 2012]). The studies were approved by the State Agency for Nature, Environment and Consumer Protection (LANUV) North Rhine-Westphalia. The fish were exposed to a single concentration of both test items in a flow-through system for 35 days. No control groups were used. Dosing was performed by a solid-phase desorption system which was integrated in the fresh water supply allowing for a constant delivery of test concentrations to the fish chambers. The procedure of column generated concentrations was described in detail by [Schlechtriem et al. (2017)]. For the present study, two packed columns containing each 500 g Florisil® loaded with 200 mg of either MXC or BaP were used for each fish chamber. The uptake (exposure) phase of the study was followed by a 35 days depuration phase in uncontaminated water. The flow-through rate was maintained at 38.6 L/h for carp and 30.1 L/h for trout throughout the test. […] Additional 2-4 fish were sampled each, at the start and at the end of the exposure period, as well as at the end of the depuration period for lipid analysis. The total lipid content of the fish was measured individually by gravimetric analysis according to [Smedes (1999)].
(§2) Water samples (400 ml) were taken from the test chambers at least three times per week. Preparation for chemical analysis was performed by liquid-liquid extraction using n-hexane (10 ml) containing deuterated MXC (35 ng). The purified organic phase was subdivided into two equal parts and evaporated to dryness under a stream of nitrogen. One part of the residue was dissolved in 200 µL DCM for MXC analysis. The other part was mixed with 1 ml ACN: water (8:2, v/v) and subjected to BaP analysis. Whole fish samples were prepared for chemical analysis individually. After grinding the tissue with the addition of dry ice in a Thermomix™ 31 (Vorwerk), the finely powdered homogenate was lyophilized using an AdVantage freeze dryer (Ismatec). Aliquots of the dry samples (0.5 g) were spiked with deuterated internal standards (5 ng MXC-d6 and 0.2 ng BaP-d12) and extracted three times with acetone: DCM (1:1, v/v) (10 ml). The pooled extracts were then extracted with ultra-pure water (45 ml) and mixed with sodium chloride (5 g) to remove acetone and matrix. The organic phase was concentrated (0.5 ml) and dissolved in cyclohexane: DCM (1:1, v/v) (4.2 ml). This was subjected to gel permeation chromatography (GPC) (GILSON system equipped with pump 307, syringe pump 402, GX-271 liquid handler, 508 interface module, and Trilution® LC software; column i. d. 1.5 cm, material Bio-Beads S-X3, 200–400 mesh, Bio-Rad, flow rate 2 ml/min). Eluates containing MXC (26–31 min retention time) and BaP (32–38 min retention time) were evaporated to dryness and dissolved in hexane (1 ml) and toluol (50 µL), respectively. The collected MXC extracts were further concentrated by solid-phase extraction (SPE, Sep-Pak® Vac 12cc, 2 g, silica cartridges, Waters) using DCM: n-hexane (50:50, v/v) as eluent. Eluent and hexane were used to equilibrate and condition the column before sample loading and subsequent washing with DCM: n-hexane (30:70, v/v). The eluate containing MXC was dried down and reconstituted in toluol (0.5 ml).
(§3) MXC in the organic phase of samples from the in vitro incubations and in DCM extracts of water samples from the in vivo bioconcentration tests were analyzed by gas chromatography-mass spectrometry (GC-MS). The GC-MS system consisted of a HP5890 series II GC coupled to a HP5972 mass sensitive detector (Hewlett-Packard). Separations were performed on 5% phenyl polysilphenylene-siloxane capillary columns (BPX-5, 30 m length x 0.25 mm i. d, 0.25 µm df, SGE). […]

[1] = In vivo bioconcentration test OECD TG 305, trout; set-up: species or system Oncorhynchus mykiss; settings: rainbow trout (Oncorhynchus mykiss)
Protocol: as §1, §2, §3

common carp = assay: In vivo bioconcentration test OECD TG 305, carp; set-up: species or system Cyprinus carpio; settings: common carp (Cyprinus carpio), in vivo
Protocol: as §1, §2, §3

[2] = In vivo bioconcentration test OECD TG 305, carp; set-up: species or system Cyprinus carpio; settings: common carp (Cyprinus carpio)
Protocol: as §1, §2, §3

[3] = in vivo, Cf data, concentration measured in individual fish

## c1ccc2c(c1)cc1ccc3cccc4ccc2c1c34 [BaP, benzo[a]pyrene]
Rainbow trout
  Cf,SS concentration in fish at steady-state: 0.126 µg/kg
  kB, in vivo estimate Trout: 0.40 day⁻¹
  kB, in vivo estimate, range of 95% probability: 0.13 to 1.2 day⁻¹
  kT depuration rate constant: 0.427 day⁻¹
  kTG growth corrected depuration rate constant: 0.401 day⁻¹
Rainbow trout; 35 d
  BCFSSL lipid-normalized steady-state bioconcentration factor: 42.8 L/kg
Rainbow trout; 44 d
  Cf data, concentration measured in individual fish: 0.002 µg/kg
[1]; [3]
  concentration at 14 d: 0.079 ng/g
  concentration at 21 d: 0.111 ng/g
  concentration at 28 d: 0.126 ng/g
  concentration at 35 d: 0.084 ng/g
  concentration at 44 d: 0.004 ng/g
[1]; in vivo, rainbow trout, day 7 (uptake), read-out: Mean Cf
  concentration at 7 d: 0.107 ng/g
[1]; in vivo, rainbow trout, day 14 (uptake), read-out: Mean Cf
  concentration at 14 d: 0.07 ng/g
[1]; in vivo, rainbow trout, day 21 (uptake), read-out: Mean Cf
  concentration at 21 d: 0.141 ng/g
[1]; in vivo, rainbow trout, day 28 (uptake), read-out: Mean Cf
  concentration at 28 d: 0.121 ng/g
[1]; in vivo, rainbow trout, day 35 (end of uptake), read-out: Mean Cf
  concentration at 35 d: 0.116 ng/g
[1]; in vivo, rainbow trout, day 40 (depuration), read-out: Mean Cf
  concentration at 40 d: 0.011 ng/g
[1]; in vivo, rainbow trout, day 44 (depuration), read-out: Mean Cf
  concentration at 44 d: 0.003 ng/g
[1]; whole fish, other: exposure via water in a flow-through system, rainbow trout, day 21 (uptake), BaP background corrected, read-out: Cf data, concentration measured in individual fish
  concentration at 21 d: 0.107 ng/g
Common carp
  Cf,SS concentration in fish at steady-state: 0.157 µg/kg
  kB, in vivo estimate Carp: 0.48 day⁻¹
  kB, in vivo estimate, range of 95% probability: 0.16–1.4
  kT depuration rate constant: 0.493 day⁻¹
  kTG growth corrected depuration rate constant: 0.482 day⁻¹
Common carp; 35 d
  BCFSSL lipid-normalized steady-state bioconcentration factor: 73 L/kg
[2]; [3]
  concentration at 7 d: 0.204 ng/g
  concentration at 14 d: 0.168 ng/g
  concentration at 21 d: 0.136 ng/g
  concentration at 28 d: 0.13 ng/g
  concentration at 35 d: 0.149 ng/g
[2]; in vivo, common carp, day 7 (uptake), read-out: Mean Cf
  concentration at 7 d: 0.216 ng/g
[2]; in vivo, common carp, day 14 (uptake), read-out: Mean Cf
  concentration at 14 d: 0.172 ng/g
[2]; in vivo, common carp, day 21 (uptake), read-out: Mean Cf
  concentration at 21 d: 0.154 ng/g
[2]; in vivo, common carp, day 28 (uptake), read-out: Mean Cf
  concentration at 28 d: 0.148 ng/g
[2]; in vivo, common carp, day 35 (end of uptake), read-out: Mean Cf
  concentration at 35 d: 0.153 ng/g
[2]; in vivo, common carp, day 40 (depuration), read-out: Mean Cf
  concentration at 40 d: 0.013 ng/g
[2]; in vivo, common carp, day 44 (depuration), read-out: Mean Cf
  concentration at 44 d: 0.002 ng/g
[2]; whole fish, other: exposure via water in a flow-through system, common carp, day 14 (uptake), BaP background corrected, read-out: Cf data, concentration measured in individual fish
  concentration at 14 d: 0.141 ng/g

Source: publication PMC9538944, “In vitro biotransformation assays using fish liver cells: Comparing rainbow trout and carp hepatocytes” (Frontiers in Toxicology, 2022)
